Measured values published in article PMC6773865, “Functional recruitment of dynamin requires multimeric interactions for efficient endocytosis” (Nature Communications, 2019).

Tested on: clathrin mediated endocytosis (TfR-SEP) in NIH 3T3 cells
Test: ppH assay combined with patch-clamp dialysis
Assay type: cell-based
Conditions: for event frequency ratio f = FWC/FCA: event frequency 8–10 min whole cell over 3–5 min cell attached, same cell, average ± SEM, SEM; for inhibition of endocytosis on dialysis: peptide dialysed through patch pipette, 3T3 cells, ppH assay
Procedure: To do so, we monitored cellular endocytic activity using the ppH assay with new developments for fully automated analysis on a large number of cells (See “Methods” and Supplementary Fig. 4). We combined this assay, which monitors in real time the endocytic activity of cells, with the patch-clamp technique in order to dialyse the relevant peptide at a known concentration inside the cellular cytoplasm to inhibit endocytosis acutely. Each recording consisted of 5 min in cell-attached mode (CA) with no dialysis followed by 10 min in whole cell mode (WC) during which the inhibitors were dialysed (Fig. 5a, b). Each recording therefore had its own internal control condition, i.e., the cell-attached mode, from which we obtained the frequency ratio f = FWC/FCA, where F is the event frequency recorded during the indicated mode. Of note, the electrical parameters of patch clamp recordings were similar in all conditions (Supplementary Fig. 5). To assess the innocuousness of this assay, we monitored the endocytic activity of unperturbed cells vs. cells dialysed with a control solution (see methods for composition). Patching the cells minimally affected their endocytic activity over a 10 min period (event frequency f = 67.3 ± 4.3%, n = 60, vs. 90.7 ± 14.9% in no patching recordings, n = 8, p = 0.58).
NIH 3T3 cells (ECACC 93061524) were cultured in DMEM supplemented with 1% sodium pyruvate, 1% glutamax and 10% fetal calf serum (Invitrogen). Cells were incubated at 37 °C in 5% CO2 until use and subcultured every 2 to 4 days for maintenance up to passage 20. Cells were transfected with 1.5 μg of TfR-SEP plasmid 24 h prior to imaging and patch clamp. Care was taken to find the right balance between sufficient fluorescent signal to allow for proper imaging and reasonable overexpression to diminish potential saturation artefacts. Best results were obtained using Fugene 6 (Promega) as the transfection reagent but Lipofectamine 2000 (Invitrogen) has also been used in this study due to a temporary arrest of Fugene 6 production by the provider. All transfections were performed according to the manufacturers’ recommendations. Four to eight hours after transfection, cells were seeded at a density of ~70,000 cells ml^−1 on 18 mm glass coverslips coated with poly-L-lysine (3 min application of 0.1 mM polylysine (Sigma P2636) in borate buffer, pH 8.0 followed by a quick rinse in PBS) and used the next day.
Fast solution exchange was controlled by electro-valves (Lee company) connected to a theta glass pipette (TG150, Harvard Apparatus) pulled to ∼100-μm tip size using a vertical puller (Narishige, World Precision Instruments) placed above the recorded cell. Cells were alternatively perfused with HEPES or MES buffered saline solutions (HBS/MBS) containing (in mM): 135 NaCl, 5 KCl, 0.4 MgCl2, 1.8 CaCl2, 1 D-glucose and 20 HEPES or MES. The pH was adjusted to 7.4 or 5.5 using NaOH and osmolarity to 310–315 mOsm L^−1 with NaCl.
Cells were patched with pipettes made of borosilicate glass (GC150F, Harvard Apparatus) and pulled with a vertical Narishige puller (World Precision Instruments). The solution contained (in mM): 130–140 KCH3SO3, 1 EGTA, 0.1 CaCl2, 10–20 HEPES, 4 ATP (sodium or magnesium salt), 0.4 Na-GTP (or GTPγS when indicated), 5 phosphocreatine and 3 sodium ascorbate. pH was adjusted to 7.2 using KOH and osmolarity to ~300 mOsm L^−1. Sodium ascorbate was omitted in earlier recordings but was added for better stability. Chloride ions either came from 2 mM KCl, 10 mM NaCl or 4 mM MgCl2 (when Na-ATP was used) in various trials. All salts were purchased from Sigma-Aldrich. Cells were voltage-clamped at −60 mV with an EPC10 amplifier (HEKA) with series resistance and cell capacitance estimation every 4 s in the whole cell mode. The digital triggers of the amplifier were used to drive the electrovalves for pH changes. […]

| Compound | event frequency ratio f = FWC/FCA (100 µM peptide in patch pipette, n = 13 (D15)) | event frequency ratio f = FWC/FCA (1 mM peptide in patch pipette, n = 22 (D15), 15 (D44), 6 (dD15-C)) | inhibition of endocytosis on dialysis |
| --- | --- | --- | --- |
| Ac-YPPPQVPSRPNRAPPG-NH2 [D15, reference compound] | 59.0 ± 5.0% | 38.2 ± 3.9% | only partial |
| CC(=O)N[C@@H](Cc1ccc(O)cc1)C(=O)N[C@@H](CCCCn1cc(CCC(=O)NCCCOCCOCCOCCCNC(=O)CCC(=O)NCCCOCCOCCOCCCNC(=O)CCC(=O)NCCCOCCOCCOCCCNC(=O)CCC(=O)N2CCC[C@H]2C(=O)N2CCC[C@H]2C(=O)N2CCC[C@H]2C(=O)N[C@@H](CCC(N)=O)C(=O)N[C@H](C(=O)N2CCC[C@H]2C(=O)N[C@@H](CO)C(=O)N[C@@H](CCCNC(=N)N)C(=O)N2CCC[C@H]2C(=O)N[C@@H](CC(N)=O)C(=O)N[C@@H](CCCNC(=N)N)C(=O)N[C@@H](C)C(=O)N2CCC[C@H]2C(=O)N2CCC[C@H]2C(=O)NCC(N)=O)C(C)C)nn1)C(=O)NCCCOCCOCCOCCCNC(=O)CCC(=O)NCCCOCCOCCOCCCNC(=O)CCC(=O)NCCCOCCOCCOCCCNC(=O)CCC(=O)N1CCC[C@H]1C(=O)N1CCC[C@H]1C(=O)N1CCC[C@H]1C(=O)N[C@@H](CCC(N)=O)C(=O)N[C@H](C(=O)N1CCC[C@H]1C(=O)N[C@@H](CO)C(=O)N[C@@H](CCCNC(=N)N)C(=O)N1CCC[C@H]1C(=O)N[C@@H](CC(N)=O)C(=O)N[C@@H](CCCNC(=N)N)C(=O)N[C@@H](C)C(=O)N1CCC[C@H]1C(=O)N1CCC[C@H]1C(=O)NCC(N)=O)C(C)C [dD15-N] |  |  | clearly increased efficiency over D15 |
